Columns and labels:
[1] = tested on: tyrosine hydroxylase (TH); test: Dopaminergic neuronal protective activity in MPTP-treated C57BL/6 mouse: TH protein level in striatum (Western blot); assay type: in vivo; details: 10 mg/kg oral at 30 min, 24 h, 48 h after MPTP s.c.; striatum 72 h after MPTP; mouse without MPTP = 100%
Protocol: (§1) Using a mouse having MPTP-induced dopaminergic neurons (Chan P. et al., J Neurochem, 57, 348-351 (1991)), the dopaminergic neuronal protective activity was evaluated based on the protein levels of tyrosine hydroxylase (TH) and dopamine transporter (DAT), which are dopaminergic neuronal marker proteins, and a dopamine content in the brain corpus striatum region after the compound administration (Mori A. et al., Neurosci Res, 51, 265-274 (2005)).
(§2) A male C57BL/6 mouse (provided by Japan Charles River Inc., 10 to 12 weeks) was used as a test animal. MPTP was dissolved in a physiological salt solution so that the concentration was 4 mg/ml, and then administered to the mouse subcutaneously in a volume of 10 ml/kg. A test compound was suspended in a 5% gum arabic/physiological salt solution (w/v) so that the concentration was 1 mg/ml. Each of the test compounds or solvents thereof was orally administered to the mouse after 30 minutes, 24 hours, and 48 hours of the MPTP administration. The mouse was decapitated after 72 hours of the MPTP administration, the brain was removed, and each side of the striatum was dissected.
(§3) The left striatum was used as a sample to detect the protein level by Western blot analysis. Each tissue was homogenized in a HEPES buffer sucrose solution (0.32 M sucrose, 4 μg/ml pepstatin, 5 μg/ml aprotinin, 20 μg/ml trypsin inhibitor, 4 μg/ml leupeptin, 0.2 mM phenylmethanesulfonyl fluoride, 2 mM ethylenediaminetetraacetic acid (EDTA), 2 mM ethylene glycol bis(β aminoethyl ether) tetraacetic acid, 20 mM HEPES, pH 7.2), and assayed for protein using a bicinchoninic acid kit for protein assay (provided by Pierce Corporation). Each homogenized sample, having an equal amount of protein that had been dissolved in a Laemmli sample buffer solution, was subjected to electrophoresis through a sodium dodecyl sulfate polyacrylamide gel. […] Subsequently, a horseradish peroxidase-labeled secondary antibody (a product of Amersham K.K.) for each primary antibody was fixed, and the chemiluminescence associated with enzyme activity of peroxidase was detected using a X-ray film. The density of the protein band on the film was analyzed using a densitometer (a product of Bio-rad Laboratories Inc.) to obtain the TH value relative to Na^+/K^+-ATPase and the DAT value relative to actin.
(§4) In both analyses, the value of the sample derived from the MPTP-induced mouse in which only the test compound or the solvent was administered was expressed relative to the value of the sample derived from the mouse without MPTP treatment (100%). Values were analyzed statistically using a nonclinical statistical analysis system, and values of significance probability less than 0.05 were defined as significant.

[2] = tested on: dopamine content in the brain corpus striatum region; test: Dopaminergic neuronal protective activity in MPTP-treated C57BL/6 mouse: dopamine content in striatum (HPLC); assay type: in vivo; details: 10 mg/kg oral at 30 min, 24 h, 48 h after MPTP s.c.; striatum 72 h after MPTP; mouse without MPTP = 100%
Protocol: as §1, §2
The right striatum, the tissue weight of which was measured immediately after dissection, was used as an analysis sample for determining the dopamine content. Each tissue was homogenized in a 0.1 N perchloric acid solution containing isoproterenol as an internal standard substance of the measurement, using an ultrasonic homogenizer while being cooled with ice. The supernatant obtained from 20,000 g of homogenate that had been centrifuged at 4° C. for 15 minutes was subjected to a high-performance liquid chromatography with a reversed phase column (a product of Eicom Corporation). A mobile phase 15% methanol 0.1 M citric acid/0.1 M sodium acetate buffer solution (containing 190 mg/L 1-sodium octane sulfonate and 5 mg/L EDTA, pH 3.5) was flowed at a rate of 0.5 ml/min, and the dopamine peak of each sample was detected using an electrochemical detector (applied voltage: +750 mV vs. Ag/AgCl, a product of Eicom Corporation). With reference to the identified dopamine peak, the dopamine content per tissue weight was calculated in each sample using analysis software (a product of Gilson Inc.).
as §4

[3] = tested on: human neuroblastoma cell lines SH-SY5Y treated with 1-methyl-4-phenylpyridinium (MPP+); test: Improvement of mitochondrial function (Alamar Blue mitochondrial oxidation reduction activity) in MPP+-treated SH-SY5Y cells; assay type: cell-based; details: 1.5 mM MPP+, relative to cells in DMSO alone = 100%, read-out: Fluorescence Intensity (%); for activity at 0.01 µg/mL: compound 0.01 μg/ml; for activity at 0.03 µg/mL: compound 0.03 μg/ml; for activity at 0.1 µg/mL: compound 0.1 μg/ml; for activity at 0.3 µg/mL: compound 0.3 μg/ml; for activity at 1 µg/mL: compound 1 μg/ml
Protocol: In human neuroblastoma cell lines SH-SY5Y in which mitochondrial function was damaged by MPP^+ treatment (Bollimuntha S. et al., J Biol Chem, 280, 2132-2140 (2005) and Shang T. et al., J Biol Chem, 280, 34644-34653 (2005)), the improvement of mitochondrial function was evaluated on the basis of the measurement value for mitochondrial oxidation reduction activity using Alamar Blue fluorescent dye after the compound addition (Nakai M. et al, Exp Neurol, 179, 103-110 (2003)).
The human neuroblastoma cell lines SH-SY5Y were cultured in Dulbecco's Modified Eagle's Medium containing 10% fetal bovine serum (DMEM containing 50 units/ml penicillin and 50 μg/ml streptomycin as antibiotics) at 37° C. in the presence of 5% carbon dioxide. Cells were scattered on a poly-D-lysine-coated 96-well black plate at a concentration of 3−6×10^4 cells/cm^2 (medium amount: 100 μl/well) and cultured in the medium for two days. Further, the medium was changed to DMEM containing a 1% N2 supplement (N2-DMEM) or to a medium (100 μl/well) in which 1.5 mM MPP^+ was dissolved. The cells were cultured therein for 39 to 48 hours, and then subjected to a mitochondrial oxidation reduction activity measurement system. A sample compound that had been previously dissolved in dimethyl sulfoxide (DMSO) was diluted with N2-DMEM and added in a volume of 10 μl/well 24 hours before the activity measurement (final compound concentration: 0.01 to 1 μg/ml).
After removal of the medium by suction, a balanced salt solution containing 10% Alamar Blue (154 mM sodium chloride, 5.6 mM potassium chloride, 2.3 mM calcium chloride, 1.0 mM magnesium chloride, 3.6 mM sodium hydrogen carbonate, 5 mM glucose, 5 mM HEPES, pH 7.2) was added in a volume of 100 μl/well, and reacted in an incubator at 37° C. for 1 hour. The fluorescent intensity was detected using a fluorescence detector (a product of Hamamatsu Photonics K.K., excitation wavelength: 530 nm, measurement wavelength: 580 nm) to thereby measure the mitochondrial oxidation reduction activity.
The fluorescent intensity of the well of the cells cultured in a medium containing MPP^+ and each of the sample compounds was relatively evaluated based on the 100% fluorescent intensity of the well of the cells cultured in a medium containing DMSO alone (final concentration: 0.1%).

[4] = tested on: dopamine transporter (DAT); test: Dopaminergic neuronal protective activity in MPTP-treated C57BL/6 mouse: DAT protein level in striatum (Western blot); assay type: in vivo; details: 10 mg/kg oral at 30 min, 24 h, 48 h after MPTP s.c.; striatum 72 h after MPTP; mouse without MPTP = 100%
Protocol: as §1, §2, §3, §4

Row | SMILES | Protein level of tyrosine hydroxylase (TH) in the brain corpus striatum region (% of control) [1] | Dopamine content in the brain corpus striatum region (% of control) [2] | melting point | activity at 0.01 µg/mL [3] | activity at 0.03 µg/mL [3] | activity at 0.1 µg/mL [3] | activity at 0.3 µg/mL [3] | activity at 1 µg/mL [3] | Protein level of dopamine transporter (DAT) in the brain corpus striatum region (% of control) [4]
1 | CCCOc1ccc(C)c2c(=O)c(-c3ccc(OC)cc3)c[nH]c12 [Example 1, 3-(4-Methoxyphenyl)-5-methyl-8-propoxy-1H-quinolin-4-one] | 86.2 % of control | 39.6 % of control | 192 to 193 °C | 58% | 68% | 73% | 66% | 46% | 84.7 % of control
2 | COc1ccc(-c2c[nH]c3c(-n4ccnc4)ccc(C)c3c2=O)cc1 [Example 67, 8-Imidazol-1-yl-3-(4-methoxyphenyl)-5-methyl-1H-quinolin-4-one] | 77.9 % of control | 26.7 % of control | 196 to 198 °C | 45% | 54% | 61% | 57% | 42% | 50.9 % of control
3 | CCCOc1ccc(C2CC2)c2c(=O)c(-c3ccc(OC)cc3)c[nH]c12 [Example 65, 5-Cyclopropyl-3-(4-methoxyphenyl)-8-propoxy-1H-quinolin-4-one] | 65.2 % of control | 31.2 % of control | 168 to 170 °C | 59% | 73% | 78% | 66% | 20% | 73.0 % of control
4 | CCCSc1ccc(C)c2c(=O)c(-c3ccc(OC)cc3)c[nH]c12 [Example 70, 3-(4-Methoxyphenyl)-5-methyl-8-propylsulfanyl-1H-quinolin-4-one] | 90.2 % of control | 26.5 % of control | 132 to 135 °C | 48% | 56% | 61% | 50% | 22% | 64.1 % of control

— patent US20130217678A1, “PHARMACEUTICAL AGENT COMPRISING QUINOLONE COMPOUND” (OTSUKA PHARMACEUTICAL CO., LTD., priority 2008, published 2013)
